Results taken from patent publication US20040249128A1, “Molecules for disease detection and treatment” (priority 2001, published 2004).

What was measured:
[1] = intranasal; greater than those produced by hydrocortisone; cited from earlier work
[2] = tested on: human fibroblastic IMR-90 cells; conditions: cited from earlier work
[3] = tested on: endothelial cell lines; assay: Microarray expression analysis of endothelial cell lines treated with TNF-α; type: cell-based, human; conditions: 10 ng/ml TNF-α, within four hours; in five out of the eight endothelial cell lines
[4] = tested on: human umbilical vein endothelial cells (HVECs); conditions: TNF-α treated compared with untreated cells; cited from earlier work
[5] = tested on: bovine aortic endothelial cells; conditions: confluent cells; cited from earlier work
[6] = tested on: vascular smooth muscle cells (SMCs); conditions: cited from earlier work
[7] = tested on: dendritic cells; assay: Microarray expression analysis during differentiation and maturation of dendritic cells; type: cell-based, human; conditions: maturation of dendritic cells induced by TNF-alpha, versus immature dendritic cells (Lci)
Description: Human CD34 positive precursor cells were isolated by positive immunomagnetic selection from the leukapheresis of normal volunteer donors who had undergone G-CSF-induced stem cell mobilization. The purified CD34+ cells were cultured in vitro for 10 days in the presence of recombinant GM-CSF, Stem Cell Factor, TNF-alpha, TGF-beta1, and Flt3-Ligand. The resulting expanded cell population was enriched for cell cluster-forming immature dendritic cells (Lci) by sedimentation over a 7.5% BSA column at 1 g for 30 min. Immature dendritic cells were cultured for two additional days in the presence of the same combination of cytokines supplemented with LPS, IL-1beta, TNF-alpha, or double strand RNA. In addition, cluster-forming immature dendritic cells were disrupted by vigorous pipetting and cultured for two additional days in the presence of the same combination of cytokines without addition of any additional factor. The partially mature dendritic cells derived by mechanical disruption of cell clusters are characterized by the presence of intracellular rod-shaped structures called Birbeck's Granules. The dendritic cell population produced using this method was called Birbeck's Granule-positive dendritic cells, or BG. […]

| Compound | anti-inflammatory and vasoconstrictive effects relative to hydrocortisone [1] [times] | suppression of [3H]proline incorporation [2] | expression of SEQ ID NO:58 [3] | increase of cellular secretions of MCP-1 [4] [fold] | suppression of [3H]proline incorporation [5] | relative proportion of collagen types IV and V [6] | incorporation of [3H]proline into collagenase-digestible proteins (CDP) and noncollagenous proteins (NCP) ([6]; confluent cultures) | expression of SEQ ID NO:96 [7] |
| --- | --- | --- | --- | --- | --- | --- | --- | --- |
| C[C@H]1C[C@H]2[C@@H]3CCC4=CC(=O)C=C[C@]4(C)[C@@]3(Cl)[C@@H](O)C[C@]2(C)[C@@]1(O)C(=O)CO [beclomethasone, Beclomethasone] | 5000 |  |  |  |  |  |  |  |
| TNF-α |  | not observed | downregulated by at least two-fold | 119 | not observed | decreases | suppresses | greater than two-fold expression |
